Laboratory results taken from US20120009320A1, “COMPOSITIONS COMPRISING MONATIN AND CALCIUM” (priority 2009, published 2012).
Counter-ions that a name gives are not always drawn.

How the values were obtained:
panelists [1] = assay: Sensory panel sweetness matching against sucrose references (SEV) in milk and water media, Example 1; format: in vivo, human; settings: for sweetness enhancement of water/calcium solution over monatin in water alone: c. 120 mg calcium/100 ml as Gluconal CAL
Experimental: (§1) As used herein, “sucrose equivalency value”, or SEV, is a measure of sweetness. The SEV is the concentration (% w/v) of a sucrose solution that gives a degree of sweetness that is perceived to be the same degree of sweetness as that of a test sample. For purposes of this disclosure, the SEV of an aqueous or dairy solution containing monatin is determined through comparison of the monatin-containing solution to a series of sucrose containing solutions prepared in the same medium (see Example 1).
Monatin compositions were prepared by adding monatin to each of the solutions below at 20 ppm and 40 ppm. Sucrose reference compositions were also prepared. • Milk (0% fat) • Milk (0% fat) adjusted to pH 4.6 with lactic acid • Milk (2% fat) • Milk (3.6% fat) • Water • Water, adjusted to pH 4.6 with lactic acid • Water containing c. 120 mg calcium/100 ml (Ca^2+ added as Gluconal CAL® soluble salt) • Water containing 4.5% lactose • Water containing c. 120 mg calcium/100 mL plus 4.5% lactose • Water containing 3% milk protein isolate (Davisco BiPro)
Panelists (8-10) were presented with a range (2-12%; w/v) of sucrose reference solutions prepared in each of the mediums listed above as well as two monatin test solutions at 20 ppm and 40 ppm prepared in the same manner. The panelists were instructed to taste the test sample and then to identify the reference sample that matched the perceived sweetness of the test sample. If the sweetness of the test sample was judged to fall between that of two references, panelists were asked to estimate sweetness to one decimal point. Panelists evaluated each sample in duplicate. All results for each test sample were averaged.

panelists [2] = assay: Sweetness matching of monatin/salt combinations in water pH 7 and citric/citrate buffer pH 3, Examples 3-5; format: in vivo, human; settings: Monatin only (40 ppm), no salt
Experimental: Test and reference solutions were prepared in the same medium. The SEVs of monatin/salt combinations at the appropriate concentrations were measured and compared to the SEV of monatin measured in the absence of any salts. […] Monatin-containing test samples and sucrose references were prepared in the same medium. Based on the previous observations that the sweetness of monatin relative to sucrose is sweeter at acidic pH, this study was carried out under two pH conditions; specifically, in water at pH 7-7.5 and in a citric/citrate buffer at pH 3.0. 2R,4R-Monatin mono potassium salt was used as an illustrative form of monatin for the experiments below. All monatin solutions were prepared ‘as is’, i.e., a 40 ppm monatin solution is 40 ppm of monatin mono potassium salt. A sweetness matching procedure was adopted. […] Each test sample was either monatin control or monatin plus designated salt at the stated concentration. Panelists were instructed to taste the test sample and then to identify the reference sample that matched the perceived sweetness of the test sample. If the sweetness of the test sample was judged to fall between that of two references, panelists were instructed to estimate sweetness to one decimal point. Panelists evaluated each sample in duplicate. Results for each test sample were averaged. […] The five samples were tested at pH 7 (water medium) and at pH 3 (citric/citrate buffer). […] The weight percent of calcium in the salt is different for each of the calcium salts. As such, the weight percent of the calcium salt in each sample is calculated in order to determine how much salt is needed to deliver 1200 ppm of calcium cations. […] The weight percent of the other calcium salts is similarly calculated based on the molar weight percent of calcium in the calcium salt. […] The samples were created at pH 3 and pH 7. The impact of other metal ions, specifically potassium and magnesium, (i.e. […] These ions were tested in the form and concentrations found in cow's milk.

[3] = Sweetness match of monatin-sweetened strawberry yogurt to 8% sucrose target; format: in vivo
Experimental: A strawberry yogurt sweetened with about 8% sucrose was prepared by conventional methods common to one skilled in the art of yogurt manufacturing to serve as a sweetness target. […] The monatin-sweetened yogurt that most closely matched the sweetness of the target sucrose sample was chosen.

[4] = Sweetness match of monatin-sweetened chocolate milk to 10% sucrose target; format: in vivo
Experimental: A chocolate milk composition sweetened with 42 DE high fructose corn syrup (HFCS) to about 10% sucrose was prepared by conventional methods common to one skilled in the art of flavored milk manufacturing to serve as a sweetness target. The amount of monatin in the five samples was about 25 ppm, about 30 ppm, about 35 ppm, about 40 ppm and about 45 ppm. Each of the five samples of monatin-sweetened milk were compared to the target milk sample containing 10% sucrose. The monatin-sweetened milk that most closely matched the sweetness of the target sucrose sample was chosen.

[5] = Sweetness match of monatin-sweetened vanilla ice cream to 13% sucrose target; format: in vivo
Experimental: A vanilla ice cream sweetened with about 13% sucrose was prepared by conventional methods common to one skilled in the art of ice cream manufacturing to serve as a sweetness target. Then a set of seven (7) ice cream samples were sweetened with R,R-monatin monopotassium salt using the ingredients listed in Table 13. The amount of monatin in the seven samples was about 35 ppm, about 40 ppm, about 45 ppm, about 50 ppm, about 55 ppm, about 60 ppm and about 70 ppm. Each of the seven samples of monatin-sweetened ice cream were compared to the target ice cream sample containing 13% sucrose. The monatin-sweetened ice cream that most closely matched the sweetness of the target sucrose sample was chosen.

[6] = Sweetness of monatin stereoisomers relative to sucrose by weight (from SEV); format: in vivo; settings: general statement of the description; listed as R,R stereoisomer of monatin, mono potassium salt
Experimental: as §1
Monatin-containing compositions are described herein as being “X” times as sweet as sucrose. The various stereoisomers of monatin are also described as being “X” times sweeter than sucrose. These values are determined from the SEV of the compositions.

## NC(CC(O)(Cc1c[nH]c2ccccc12)C(=O)O)C(=O)O (stereo not drawn) [R,R-Monatin, 2R,4R-Monatin mono potassium salt]
Panelists [1]; 20 ppm monatin
  decrease in sweetness of water solution having 4.5% lactose compared to water solution only containing monatin: 22%
  sweetness enhancement of 0% fat milk at pH 4.6 over 0% fat milk at pH 6.4: 13%
  sweetness enhancement of water/calcium solution over monatin in water alone: 25%
Panelists [1]; 20 ppm monatin, Milk (0% fat), pH 6.4
  SEV: 5.3 %; w/v
Panelists [1]; 20 ppm monatin, Milk (0% fat; yogurt + milk), pH 4.6
  SEV: 6.0 %; w/v
Panelists [1]; 20 ppm monatin, Milk (2% fat), pH 6.4
  SEV: 5.6 %; w/v
Panelists [1]; 20 ppm monatin, Milk (3.6% fat), pH 6.4
  SEV: 5.2 %; w/v
Panelists [1]; 20 ppm monatin, Water + 120 mg/100 mL calcium (Gluconal CAL), pH 7.6
  SEV: 6.4 %; w/v
Panelists [1]; 20 ppm monatin, Water + 3% whey protein isolate, pH 7.8
  SEV: 5.2 %; w/v
Panelists [1]; 20 ppm monatin, Water + 4.5% lactose, pH 7.8
  SEV: 4.0 %; w/v
Panelists [1]; 20 ppm monatin, Water + calcium + lactose, pH 7.8
  SEV: 5.6 %; w/v
Panelists [1]; 20 ppm monatin, Water + lactic acid, pH 4.6
  SEV: 6.0 %; w/v
Panelists [1]; 20 ppm monatin, Water, pH 7.8
  SEV: 5.1 %; w/v
Panelists [1]; 40 ppm monatin
  decrease in sweetness of water solution having 4.5% lactose compared to water solution only containing monatin: 18%
  sweetness enhancement of 0% fat milk at pH 4.6 over 0% fat milk at pH 6.4: 16%
  sweetness enhancement of water/calcium solution over monatin in water alone: 17%
Panelists [1]; 40 ppm monatin, Milk (0% fat), pH 6.4
  SEV: 8.5 %; w/v
Panelists [1]; 40 ppm monatin, Milk (0% fat; yogurt + milk), pH 4.6
  SEV: 9.9 %; w/v
Panelists [1]; 40 ppm monatin, Milk (2% fat), pH 6.4
  SEV: 8.7 %; w/v
Panelists [1]; 40 ppm monatin, Milk (3.6% fat), pH 6.4
  SEV: 8.3 %; w/v
Panelists [1]; 40 ppm monatin, Water + 120 mg/100 mL calcium (Gluconal CAL), pH 7.6
  SEV: 9.0 %; w/v
Panelists [1]; 40 ppm monatin, Water + 3% whey protein isolate, pH 7.8
  SEV: 7.6 %; w/v
Panelists [1]; 40 ppm monatin, Water + 4.5% lactose, pH 7.8
  SEV: 6.3 %; w/v
Panelists [1]; 40 ppm monatin, Water + calcium + lactose, pH 7.8
  SEV: 8.0 %; w/v
Panelists [1]; 40 ppm monatin, Water + lactic acid, pH 4.6
  SEV: 7.9 %; w/v
Panelists [1]; 40 ppm monatin, Water, pH 7.8
  SEV: 7.7 %; w/v
Panelists [1]; milk 0%, 2%, 3.6% fat
  impact of milk fat on relative sweetness values of monatin solutions prepared from milk: essentially unaffected
Panelists [2]; pH 3.0 citric/citrate buffer
  Sucrose Equivalency Value: 8.6%
Panelists [2]; pH 7.0 water
  Sucrose Equivalency Value: 8.4%
[3]; strawberry yogurt
  monatin concentration that most closely matched the sweetness of yogurt sweetened to 8% sucrose: about 25 ppm
  times as sweet as sucrose: about 3200 times
[3]; strawberry yogurt with 25 ppm R,R monatin
  SEV: about 8%
[4]
  monatin concentration that most closely matched the sweetness of milk sweetened to 10% sucrose: about 35 ppm
  times as sweet as sucrose: about 2800 times
[5]
  monatin concentration that most closely matched the sweetness of ice cream sweetened to 13% sucrose: about 45 ppm
  times as sweet as sucrose: about 2800 times
[6]
  times sweeter than sucrose by weight: 2000-2400 times
